Results taken from paper PMC6222377, “Design, Synthesis, and Evaluation of Amphiphilic Cyclic and Linear Peptides Composed of Hydrophobic and Positively-Charged Amino Acids as Antibacterial Agents” (Molecules : A Journal of Synthetic Chemistry and Natural …, 2018).
≈ marks a conversion by molar mass, not a printed value. Where a SMILES comes first, the peptide text is derived from it. [ ]: non-standard residue; d: D form. Trp(1-Me) = Cn1cc(C[C@H](N)C(=O)O)c2ccccc21

What was measured:
[1] = test system: MRSA (Los Angeles County clone (LAC)); assay: microbe, parasite or virus in culture; format: cell-based, methicillin-resistant Staphylococcus aureus; conditions: for MIC MRSA (LAC): Los Angeles County clone (LAC); for reduction of antibacterial activity compared with [R4W4]: comparison of MIC values with lead compound [R4W4]
Protocol: (§1) To evaluate the antibacterial activity of all the synthesized peptides, the minimum inhibitory concentration (MIC) was determined using the micro broth dilution method (Table 1), as per the Clinical Laboratory Standards Institute (CLSI). The MIC is a quantitative measurement of the minimum concentration of a compound required to inhibit visible bacterial growth. MIC values for all 20 peptides were measured against E. coli (ATCC 25922) and MRSA (Los Angeles County clone (LAC)) (Table 1). These two bacterial strains represent Gram-negative and Gram-positive pathogens. MRSA is one of the most challenging Gram-positive bacteria that leads to a life-threatening infection, while E. coli is a Gram-negative bacteria that has the ability to use gene mutations and multidrug efflux pumps that can result in multidrug resistance.
(§2) Two bacterial strains, methicillin-resistant Staphylococcus aureus (LAC) and Escherichia coli (ATCC 25922) were used for the evaluation of the antibacterial activities of the peptides. […] MRSA and E. coli were inoculated into Mueller Hinton (MH) broth (5 mL) at 37 °C. After shaking in an orbital shaker (175 rpm) overnight, the cultured suspension was diluted using normal saline (5 mL). […] An amount of 40 μL of the McFarland solution was then added to 5980 μL of MH media to afford 1/150 dilution. […] Minimal inhibitory concentrations (MIC) values were obtained using the broth micro dilution assay. In brief, first, the peptides and controls (200 μL) were added to the first column of the 96 well plate. Second, 2-fold serial dilutions of the compound were accomplished by adding media (100 μL) to other wells. After the serial dilution, the bacterial solution (100 μL) was added to all the wells. Finally, the microtiter plates were incubated statically at 37 °C overnight. MIC values were obtained by observing the minimal concentration at which bacterial growth was not visible. All the determinations were carried out in triplicate.

E. coli (ATCC 25922) = assay: microbe, parasite or virus in culture; format: cell-based, Escherichia coli
Protocol: as §1, §2

MRSA (ATCC 43300) = conditions: cited from earlier work
Description: Synthesis of AMPs by modifying the structures of amino acids is relatively easy. Change in the structure of natural and synthetic AMPs can be used to develop new active compounds with optimal activity and stability. Developing small-sized linear or cyclic peptides for AMP application is more accessible than the complex AMPs isolated from natural products containing disulfide bonds. The cyclic peptides are polypeptides chains containing a cyclic structure synthesized by linking the carboxylic acid and amino groups in the peptide.

Compound	MIC MRSA (LAC) [1] [µg/mL]	MIC E. coli (ATCC 25922) (E. coli (ATCC 25922)) [µg/mL]	other results
CC(C)C[C@@H]1NC(=O)[C@H](CCCNC(=N)N)NC(=O)[C@H](CCCNC(=N)N)NC(=O)[C@H](CCCNC(=N)N)NC(=O)[C@H](CCCNC(=N)N)NC(=O)[C@H](CC(C)C)NC(=O)[C@H](CC(C)C)NC(=O)[C@H](CC(C)C)NC1=O [[L4R4] (12)] (cyclo(LLLLRRRR))	>128	>128	
N=C(N)NCCC[C@@H]1NC(=O)[C@H](CCCNC(=N)N)NC(=O)[C@H](CCCNC(=N)N)NC(=O)[C@H](Cc2c[nH]c3ccccc23)NC(=O)[C@H](Cc2c[nH]c3ccccc23)NC(=O)[C@H](Cc2c[nH]c3ccccc23)NC(=O)[C@H](Cc2c[nH]c3ccccc23)NC(=O)[C@H](CCCNC(=N)N)NC1=O [[R4W4] (7)] (cyclo(RRRRWWWW))	4 (≈ 2.92 µM)	16 (≈ 11.7 µM)	MIC against MRSA as printed in the cytotoxicity section ([1]; text of section 2.3): 4 µM (≈ 5.48 µg/mL); MIC against MRSA (ATCC 43300) (MRSA (ATCC 43300)): 2.67 µg/mL (≈ 1.95 µM)
CN[C@H](CC(C)C)C(=O)N[C@H]1C(=O)N[C@@H](CC(N)=O)C(=O)N[C@H]2C(=O)N[C@H]3C(=O)N[C@H](C(=O)N[C@H](C(=O)O)c4cc(O)cc(O)c4-c4cc3ccc4O)[C@H](O)c3ccc(c(Cl)c3)Oc3cc2cc(c3O[C@@H]2O[C@H](CO)[C@@H](O)[C@H](O)[C@H]2O[C@H]2C[C@](C)(N)[C@H](O)[C@H](C)O2)Oc2ccc(cc2Cl)[C@H]1O [Vancomycin, reference compound]			MIC ([1]; Staphylococcus aureus, MRSA, read-out: MIC MRSA (LAC)): 1 µg/mL (≈ 0.69 µM)
N=C(N)NCCC[C@@H]1NC(=O)[C@H](CCCNC(=N)N)NC(=O)[C@H](CCCNC(=N)N)NC(=O)[C@H](CCCNC(=N)N)NC(=O)[C@H](Cc2c[nH]c3ccccc23)NC(=O)[C@H](Cc2c[nH]c3ccccc23)NC(=O)[C@H](Cc2c[nH]c3ccccc23)NC(=O)[C@H](Cc2c[nH]c3ccccc23)NC(=O)[C@H](Cc2c[nH]c3ccccc23)NC(=O)[C@H](Cc2c[nH]c3ccccc23)NC(=O)[C@H](Cc2c[nH]c3ccccc23)NC(=O)[C@H](CCCNC(=N)N)NC(=O)[C@H](CCCNC(=N)N)NC(=O)[C@H](CCCNC(=N)N)NC1=O [[R7W7] (20)] (cyclo(RRRRRRRWWWWWWW))	8 (≈ 3.34 µM)	32 (≈ 13.4 µM)	
H-YYYYRRRR-OH [Y4R4 (6)]	>128	>128	
N=C(N)NCCC[C@@H]1NC(=O)[C@H](CCCNC(=N)N)NC(=O)[C@H](CCCNC(=N)N)NC(=O)[C@H](CCCNC(=N)N)NC(=O)[C@H](Cc2c[nH]c3ccccc23)NC(=O)[C@H](Cc2c[nH]c3ccccc23)NC(=O)[C@H](Cc2c[nH]c3ccccc23)NC(=O)[C@H](Cc2c[nH]c3ccccc23)NC(=O)[C@H](Cc2c[nH]c3ccccc23)NC(=O)[C@H](Cc2c[nH]c3ccccc23)NC(=O)[C@H](CCCNC(=N)N)NC(=O)[C@H](CCCNC(=N)N)NC(=O)[C@H](CCCNC(=N)N)NC1=O [[R7W6] (19)] (cyclo(RRRRRRRWWWWWW))	16 (≈ 7.24 µM)	64 (≈ 29 µM)	
N=C(N)NCCC[C@H](NC(=O)[C@H](CCCNC(=N)N)NC(=O)[C@H](CCCNC(=N)N)NC(=O)[C@@H](N)CCCNC(=N)N)C(=O)N[C@@H](Cc1c[nH]c2ccccc12)C(=O)N[C@@H](Cc1c[nH]c2ccccc12)C(=O)N[C@@H](Cc1c[nH]c2ccccc12)C(=O)N[C@@H](Cc1c[nH]c2ccccc12)C(=O)N[C@@H](Cc1c[nH]c2ccccc12)C(=O)O [R4W5 (18)5]	16 (≈ 10.2 µM)	32 (≈ 20.3 µM)	
H-AAAARRRR-OH [A4R4 (2)]	>128	>128	
N=C(N)NCCC[C@H]1NC(=O)[C@H](Cc2c[nH]c3ccccc23)NC(=O)[C@H](Cc2c[nH]c3ccccc23)NC(=O)[C@H](Cc2c[nH]c3ccccc23)NC(=O)[C@H](Cc2c[nH]c3ccccc23)NC(=O)[C@@H](CCCNC(=N)N)NC(=O)[C@@H](CCCNC(=N)N)NC(=O)[C@@H](CCCNC(=N)N)NC1=O [[DR4W4] (14)] (cyclo([dR][dR][dR][dR]WWWW))	8 (≈ 5.84 µM)	16 (≈ 11.7 µM)	reduction of antibacterial activity compared with [R4W4] [1]: two-fold
N=C(N)NCCC[C@@H]1NC(=O)[C@H](CCCNC(=N)N)NC(=O)[C@H](CCCNC(=N)N)NC(=O)[C@H](Cc2ccccc2)NC(=O)[C@H](Cc2ccccc2)NC(=O)[C@H](Cc2ccccc2)NC(=O)[C@H](Cc2ccccc2)NC(=O)[C@H](CCCNC(=N)N)NC1=O [[F4R4] (9)] (cyclo(RRRRFFFF))	>128	>128	
N=C(N)NCCC[C@@H]1NC(=O)[C@H](CCCNC(=N)N)NC(=O)[C@H](CCCNC(=N)N)NC(=O)[C@H](Cc2ccc(O)cc2)NC(=O)[C@H](Cc2ccc(O)cc2)NC(=O)[C@H](Cc2ccc(O)cc2)NC(=O)[C@H](Cc2ccc(O)cc2)NC(=O)[C@H](CCCNC(=N)N)NC1=O [[Y4R4] (8)] (cyclo(YYYYRRRR))	>128	>128	
N=C(N)NCCC[C@@H]1NC(=O)[C@H](CCCNC(=N)N)NC(=O)[C@H](CCCNC(=N)N)NC(=O)[C@H](CCCNC(=N)N)NC(=O)[C@H](Cc2c[nH]c3ccccc23)NC(=O)[C@H](Cc2c[nH]c3ccccc23)NC(=O)[C@H](Cc2c[nH]c3ccccc23)NC(=O)[C@H](Cc2c[nH]c3ccccc23)NC(=O)[C@H](Cc2c[nH]c3ccccc23)NC(=O)[C@H](CCCNC(=N)N)NC(=O)[C@H](CCCNC(=N)N)NC(=O)[C@H](CCCNC(=N)N)NC1=O [[R7W5] (17)] (cyclo(RRRRRRRWWWWW))	32 (≈ 15.8 µM)	64 (≈ 31.6 µM)	
C[C@@H](O)[C@H]1C(=O)N2C(C(=O)O)=C(S[C@@H]3CN[C@H](C(=O)N(C)C)C3)[C@H](C)[C@H]12 [Meropenem, reference compound]			MIC (E. coli (ATCC 25922); Escherichia coli, ATCC25922, broth microdilution, Mueller Hinton broth, 37 °C overnight, visible growth, triplicate): 0.25 µg/mL (≈ 0.652 µM)
Cn1cc(C[C@@H]2NC(=O)[C@H](CCCNC(=N)N)NC(=O)[C@H](CCCNC(=N)N)NC(=O)[C@H](CCCNC(=N)N)NC(=O)[C@H](CCCNC(=N)N)NC(=O)[C@H](Cc3cn(C)c4ccccc34)NC(=O)[C@H](Cc3cn(C)c4ccccc34)NC(=O)[C@H](Cc3cn(C)c4ccccc34)NC2=O)c2ccccc21 [[W(Me)4R4] (13)] (cyclo([Trp(1-Me)][Trp(1-Me)][Trp(1-Me)][Trp(1-Me)]RRRR))	8 (≈ 5.61 µM)	16 (≈ 11.2 µM)	
H-FFFFRRRR-OH [F4R4 (3)]	>128	>128	
NCCCC[C@@H]1NC(=O)[C@H](CCCCN)NC(=O)[C@H](CCCCN)NC(=O)[C@H](Cc2c[nH]c3ccccc23)NC(=O)[C@H](Cc2c[nH]c3ccccc23)NC(=O)[C@H](Cc2c[nH]c3ccccc23)NC(=O)[C@H](Cc2c[nH]c3ccccc23)NC(=O)[C@H](CCCCN)NC1=O [[K4W4] (15)] (cyclo(KKKKWWWW))	8 (≈ 6.36 µM)	16 (≈ 12.7 µM)	reduction of antibacterial activity compared with [R4W4] [1]: two-fold
O=C(O)CC[C@@H]1NC(=O)[C@H](CCC(=O)O)NC(=O)[C@H](CCC(=O)O)NC(=O)[C@H](Cc2c[nH]c3ccccc23)NC(=O)[C@H](Cc2c[nH]c3ccccc23)NC(=O)[C@H](Cc2c[nH]c3ccccc23)NC(=O)[C@H](Cc2c[nH]c3ccccc23)NC(=O)[C@H](CCC(=O)O)NC1=O [[E4W4] (16)] (cyclo(EEEEWWWW))	>128	>128	antibacterial activity (in words) ([1]; text summary of MIC results): abolished the activity completely
C[C@@H]1NC(=O)[C@H](C)NC(=O)[C@H](C)NC(=O)[C@H](CCCNC(=N)N)NC(=O)[C@H](CCCNC(=N)N)NC(=O)[C@H](CCCNC(=N)N)NC(=O)[C@H](CCCNC(=N)N)NC(=O)[C@H](C)NC1=O [[A4R4] (10)] (cyclo(AAAARRRR))	>128	>128	
H-RRRRWWWW-OH [R4W4 (1)]	32	64	
CC[C@H](C)[C@@H]1NC(=O)[C@H](CCCNC(=N)N)NC(=O)[C@H](CCCNC(=N)N)NC(=O)[C@H](CCCNC(=N)N)NC(=O)[C@H](CCCNC(=N)N)NC(=O)[C@H]([C@@H](C)CC)NC(=O)[C@H]([C@@H](C)CC)NC(=O)[C@H]([C@@H](C)CC)NC1=O [[I4R4] (11)] (cyclo(IIIIRRRR))	>128	>128	
H-LLLLRRRR-OH [L4R4 (4)]	>128	>128	
H-IIIIRRRR-OH [I4R4 (5)]	>128	>128	
